Measurements: patent EP3878462B1 (priority 2015, dated 2017)
Read-outs that look alike come from different tables or passages of the source.

Tests used:
L1210 leukemia cells = test: Survival of mice transplanted with L1210 leukemia cells; assay type: in vivo, DBA2 mice; settings: single agent: AraC 1000 mg/kg IP Days 2, 5, 8, or DNase II 15 or 45 mg/kg/day IP; Figure 4
Description: Treatment with DNase and AraC was initiated on Day 1 of experiment. Cytosine arabinoside (AraC; Cytosar; Pfizer) was injected IP at a dose of 1000 mg/kg on Days 2, 5 and 8. The injected doses were considered adequate for the model and injection route based on prior experiments (13-14). DNase II (Wornington) was injected IP at doses of 15 mg/kg/day and 45 mg/kg/day on Days 1, 3, 5, 8, 10, 12, 15, 17, and 19.
Animals were randomized into 6 experimental groups of 6 mice per group as follows: • 1. Group I: negative control (no treatment); • 2. Group II: positive control (animals treated with AraC); • 3. Group III: animals treated with AraC and 15 mg/kg DNase; • 4. Group IV: animals treated with AraC and 45 mg/kg DNase; • 5. Group V: animals treated with 15 mg/kg DNase, no AraC; • 6. Group VI: animals treated with 45 mg/kg DNase, no AraC.

[1] = Etoposide 200 mg/kg + 5-FU 400 mg/kg per os, treatment 50 mg/kg IV
Description: On Day 1, Etoposide (LANCE) 200 mg/kg and 5-fluorouracil (5-FU; EBEWE) 400 mg/kg were given orally via feeding needle in 500 pl of a 9% glucose solution. Animals were divided into 4 groups of 16 rats each. […] Group I: IV placebo (WFI); • 2. Group II: human recombinant DNase I (Pharmsynthez OJSC) at 1.5 mg/kg (3000 KU/kg) dose IV; • 3. Group III: human recombinant DNase I (Pharmsynthez OJSC) at 50 mg/kg (100000 KU/kg) dose IV; • 4. Group IV: cimetidine solution (Gedeon Richter) at 50 mg/kg dose IV.
36 hours later, all animals were euthanized and their stomachs were removed and analyzed for the presence of erosions and hemorrhages using an automated video analyzer system.

[2] = for Body weight of surviving rats: Doxorubicin 3.75 mg/kg plus DNase I 15 mg/kg/day IP or placebo; for Number of dead/out of total in group: monitored 2 weeks
Description: Group I: control group (no Doxorubicin, no DNase); • 2.
Animals were monitored during 2 weeks from the beginning of experiment for survival and weight.

[3] = surviving rats, Day 14; Doxorubicin 3.75 mg/kg plus DNase I 15 mg/kg/day IP or placebo
Description: 42 Wistar male rats (180-200 g) were used in this experiment (obtained from Stolbovaya nursery of Russian Academy of Medical Sciences). Animals were kept under standard conditions with free access to food and drinking water. Animals were randomized into 7 groups (6 animals in each group) as follows: • 1. Group I: control group (no Doxorubicin, no DNase); • 2. Group II: animals treated by daily intravenous (IV) injections of Doxorubicin (LENS) at 3.75 mg/kg/day dose for 5 days plus daily intraperitoneal (IP) injections of human recombinant DNase I (Pharmsynthez OJSC) at 15 mg/kg/day dose (30000 KU/kg/day); Doxorubicin and DNase I injections were administered at the same time; • 3. Group III: animals treated by daily IV injections of Doxorubicin (LENS) at 3.75 mg/kg/day dose for 5 days plus daily IP injections of placebo (water for injection [WFI]); • 4. Group IV: animals treated by daily IV injections of Doxorubicin (LENS) at 7.5 mg/kg/day dose for 5 days plus daily IP injections of human recombinant DNase I (Pharmsynthez OJSC) at 15 mg/kg/day dose (30000 KU/kg/day); Doxorubicin and DNase I injections were administered at the same time; • 5. Group V: animals treated by daily IV injections of Doxorubicin (LENS) at 7.5 mg/kg/day dose for 5 days plus daily IP injections of placebo (WFI); • 6. Group VI: animals treated by daily IV injections of Doxorubicin (LENS) at 10.0 mg/kg/day dose for 5 days plus daily IP injections of human recombinant DNase I (Pharmsynthez OJSC) at 15 mg/kg/day dose (30000 KU/kg/day); Doxorubicin and DNase I injections were administered at the same time; • 7. Group VII: animals treated by daily IV injections of Doxorubicin (LENS) at 10.0 mg/kg/day dose for 5 days plus daily IP injections of placebo (WFI).

Thymocytes = test: Con A-induced lymphocyte blast transformation of thymocytes from paclitaxel-treated mice (3H thymidine incorporation); assay type: in vivo, (CBAxC57Bl6) F1 mice; settings: thymocytes collected 24 hours after paclitaxel 20 mg/kg IV, with or without DNase gamma 2 mg/kg IP 1 hour later, scintillation counts
Description: 10 male 6-week-old (CBAxC57Bl6) F1 mice (obtained from Rappolovo animal house) were given a single 20 mg/kg dose of paclitaxel (Paclitaxel-Teva) IV. A group of 5 paclitaxel treated mice were injected IP 1 hour later with recombinant mouse DNase gamma (USCN Life Science Inc.) at 2 mg/kg dose IP. A group of 5 […] mice were injected IP at the same time with 1 ml of placebo (WFI) to serve as the control. All mice were killed 24 hours later by cervical dislocation. The thymuses from each group were collected and homogenized in a separator in RPMI 1640 media supplemented with 10% fetal calf serum. The suspension of thymocytes was filtered and sedimented in a centrifuge at 400xg for 2 minutes and then resuspended with the same media. Thymocytes were plated into 96 well plates (900,000 cells per well in 200 pl of RPMI 1640 supplemented with 10% fetal calf serum (FCS)) and incubated for 32 hours at 37°C, 100% humidity and 5% COz atmosphere. Each well was then supplemented with ^3H thymidine (UC/10pl/well) and Concanavalin A (ConA; 50pl; 1.25 pg/ml). After 24 hours of further incubation, thymocytes were harvested and dried. Labeled ^3H thymidine incorporation was measured using a Beckman scintillation counter.

[4] = Doxorubicin 3.75 mg/kg/day IV for 5 days plus DNase I 15 mg/kg/day IP or placebo (WFI)
[5] = Doxorubicin 7.5 mg/kg/day IV for 5 days plus DNase I 15 mg/kg/day IP or placebo (WFI)
[6] = Doxorubicin 10.0 mg/kg/day IV for 5 days plus DNase I 15 mg/kg/day IP or placebo (WFI)

Structure (SMILES): Nc1ccn([C@@H]2O[C@H](CO)[C@@H](O)[C@@H]2O)c(=O)n1 [AraC, cytosine arabinoside]
- survival rates (L1210 leukemia cells): better survival rates versus non-treated mice

Structure (SMILES): CN/C(=N/CCSCc1nc[nH]c1C)NC#N [Cimetidine, cimetidine]
- Median number of lesions [1]: 2.5±1.1
- Number of lesion free animals (percent) [1]: 62.5%
- Total number of lesions per group ([1]; 16 animals, 36 hours later): 40
- Number of lesion free animals ([1]; of 16 animals): 10

Structure (SMILES): COc1cccc2c1C(=O)c1c(O)c3c(c(O)c1C2=O)C[C@@](O)(C(=O)CO)C[C@@H]3O[C@H]1C[C@H](N)[C@H](O)[C@H](C)O1 [Doxorubicin]
- Body weight of surviving rats ([2]; Baseline (before doxorubicin)): 164 ± 6 grams
- Body weight of surviving rats ([2]; Day 4): 143 ± 6 grams
- Body weight of surviving rats ([2]; Day 7): 151 ± 7 grams
- Body weight of surviving rats ([2]; Day 14): 156 ± 6 grams
- Median survival of deceased rats [2, 4]: 12 ± 2.1 days
- Number of dead/out of total in group [2, 4]: 3/6
- Median survival of deceased rats [2, 5]: 8.2 ± 1.0 days
- Number of dead/out of total in group [2, 5]: 5/6
- Median survival of deceased rats [2, 6]: 6.6 ± 0.9 days
- Number of dead/out of total in group [2, 6]: 6/6
- Basophils [3]: 0%
- Eosinophils [3]: 2.4±0.3%
- Glucose [3]: 6.1 ± 0.2 mmol/L
- Haemoglobin [3]: 9.5±0.7 G%
- Hematocrit [3]: 30.5±2.2%
- K [3]: 5.6 ± 0.3 mmol/L
- Lymphocytes [3]: 82.3±2.2%
- Monocyte [3]: 2.3±0.5%
- Na [3]: 144 ± 2 mmol/L
- Plasmatic cells [3]: 1.3±0.5%
- Platelets [3]: 340±25 10^9/L
- Protein [3]: 54.7 ± 7.3 g/L
- RBC sedimentation count [3]: 24.1±4.5 mm/h
- Segmented neutrophils [3]: 11.6±1.3%
- Total cholesterol [3]: 1.10 ± 0.29 mmol/L
- Total lipids [3]: 2.06 ± 0.27 g/L
- Urea [3]: 7.21 ± 0.3 mmol/L
- WBC [3]: 4.9±0.2 10^9/L

Structure (SMILES): CC(=O)O[C@H]1C(=O)[C@@]2(C)[C@H]([C@H](OC(=O)c3ccccc3)[C@]3(O)C[C@H](OC(=O)[C@H](O)[C@@H](NC(=O)c4ccccc4)c4ccccc4)C(C)=C1C3(C)C)[C@]1(OC(C)=O)CO[C@@H]1C[C@@H]2O [Paclitaxel, paclitaxel]
- Con A-induced ^3HT incorporation (Thymocytes; ConA): 1686±142 CPM
- Basal ^3HT incorporation (Thymocytes): 277±21 CPM
